Legend:
Type in all cases: cell-based
Saccharomyces cerevisae [1] = test: Quantitative cell density test, OD 600 nm, 96 well microplates, yeast; details: for reduction in cell density vs controls (OD 600 nm): S. cerevisae, 24 hours, 10 μL of 1 mg/mL (˜4 μM) compound in DMSO added to 200 μL culture, ANOVA p<0.000
Description: (§1) The results of the Oxford disc assay using the isolated compounds confirmed these observations for both S. cerevisae and Microbotryum violaceum. A quantitative test protocol based on cell density using OD measurements at 600 nm in 96 well microplates was employed.
(§2) Disc diffusion assays with the extracts were employed for preliminary antifungal testing using Saccharomyces cerevisae for all strains (Sumarah et al., 2008b). […] The individual compounds were further tested using these two fungi in 96 well microplates where 10 μL of 1 mg/mL (˜4 μM) of each compound in DMSO was added to 200 μL of the above macerated cultures. The plates were incubated at room temperature with constant shaking and were measured at 600 nm. The antifungal compound nystatin was used as the positive control for all experiments.

Microbotryum violaceum [2] = test: Quantitative cell density test, OD 600 nm, 96 well microplates, rust; details: M. violaceum, 48 hours; 10 μL of 1 mg/mL (˜4 μM) compound in DMSO added to 200 μL culture; ANOVA p<0.000
Description: as §1, §2

Saccharomyces cerevisae [3] = test: Disc diffusion (Oxford) antifungal assay, yeast; details: isolated compounds
Method: (§3) The term “toxicity” as used herein with respect to the effect of a toxin compound or toxigenic endophyte strain on a pest means inhibited or reduced growth and/or pest death in the presence of the toxin compound or toxigenic endophyte compared to a control. For example, where toxicity is assessed using a disc diffusion assay, which uses a disc comprising a compound, which is placed on a microbial lawn, the compound is a toxic compound if it results in a zone of clearing around the disc.
(§4) From these strains the new aliphatic polyketide compound 1 and three related sesquiterpenes (IIa), (IIb) and (III) were isolated and characterized (see FIG. 1). Compound (III) is reported for the first time as a natural product and the E/Z conformational isomers (IIa) and (IIb) are reported as new structures (see FIG. 1). Additionally, the three known macrolides; pyrenophorol (IV), dihydropyrenophorin (V) and pyrenophorin (VI) were isolated and identified. Their structures were elucidated by spectroscopic analyses including 2D NMR, HRMS and by comparison to literature data where available.
as §1, §2

Microbotryum violaceum [4] = test: Disc diffusion (Oxford) antifungal assay, rust; details: isolated compounds, rust grown on MYP
Method: as §3, §4, §1, §2

SMILES	reduction in cell density vs controls (OD 600 nm) (Saccharomyces cerevisae [1])	rank of antifungal effect among compounds 1, (III) and (IV) (Saccharomyces cerevisae [1]; based on results of the response at 24 h)	reduction in cell density vs controls (OD 600 nm) (Microbotryum violaceum [2])	antifungal activity against Saccharomyces cerevisae (Saccharomyces cerevisae [3])	antifungal activity against Microbotryum violaceum (Microbotryum violaceum [4])	antifungal activity against Microbotryum violaceum (Microbotryum violaceum [4]; listed as 2)	antifungal activity against Microbotryum violaceum (Microbotryum violaceum [4]; listed as (2E,4Z)-methyl-6-acetoxy-5-acetyl-7-oxohepta-2,4-dienoate)	antifungal activity against Microbotryum violaceum (Microbotryum violaceum [4]; listed as 5)
CC1(C)CCCC(C)(c2ccc(CO)cc2O)O1 (stereo not shown) [Compound (III), 5-(hydroxymethyl)-2-(2′,6′,6′-trimethyltetrahydro-2H-pyran-2-yl)phenol]	Statistically-significant reductions in cell density	most antifungal	Statistically-significant reductions in cell density	antifungal activity	antifungal activity	antifungal activity	–	–
COC(=O)/C=C\C=C(\C=O)C(OC(C)=O)C(C)=O (stereo not shown) [Compound 1, (2Z,4E)-methyl-6-acetoxy-5-formyl-7-oxo-octa-2,4-dienoate]	Statistically-significant reductions in cell density	–	Statistically-significant reductions in cell density	antifungal activity	antifungal activity	–	antifungal activity	–
C[C@@H]1CC[C@H](O)/C=C/C(=O)O[C@H](C)CC[C@H](O)/C=C/C(=O)O1 [Compound (IV), pyrenophorol]	Statistically-significant reductions in cell density	–	Statistically-significant reductions in cell density	antifungal activity	antifungal activity	–	–	antifungal activity

Reference: patent publication US9469836B2, “Antifungal metabolites from fungal endophytes of Pinus strobus” (J.D. IRVING, LIMITED, priority 2011, dated 2016)
